Assay: Toxicity in iv dosed white Swiss-Webster mouse
Type: organism-based
Conditions: in vivo

**Q.** With `CCN1C[C@]2(COC(=O)c3ccccc3N3C(=O)C[C@H](C)C3=O)CC[C@H](O)[C@@]34[C@@H]5C[C@H]6[C@H](OC)[C@@H]5[C@](O)(C[C@@H]6OC)[C@](O)([C@@H](OC)[C@H]23)[C@@H]14` [GRANDIFLORINE] as the compound, how does the LD50 read?
**A.** The LD50 was 8.3 mg/kg.

Reference: ChEMBL document CHEMBL1150941, “The characterization and structure-activity evaluation of toxic norditerpenoid alkaloids from two Delphinium species” (J Nat Prod, 1998)
